# Calls of active or inactive are those of the source.
# Assays:
# [1] = biological target: Cytochrome P450 3A4 (Homo sapiens, UniProt P08684);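 also: CYP3A4 tested as one member of a cytochrome P450 panel screen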
# [2] = biological target: Cytochrome P450 2C19 (Homo sapiens, UniProt P33261); experiment: Cytochrome panel assay with activity outcomes. Panel member name: p450-cyp2c19 Compounds with AC50 equal or less than 10 uM are considered active; format: functional
# [3] = biological target: T1, Heat shock factor protein 1 (Mus musculus, UniProt P38532); experiment: enhancement of HSF1-driven luciferase signal – cell-based, NIH3T3, luminescence, dose retest, confirmation (AID 435004); format: functional;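 also: stress induced by proteasome inhibitor MG132 added 30 min after compound; luciferase reporter driven by HSF1 response element in NIH3T3 cells; actives raise luminescence as potentiators of the MG132 stress response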
# T1 sequence (P38532 whole entry): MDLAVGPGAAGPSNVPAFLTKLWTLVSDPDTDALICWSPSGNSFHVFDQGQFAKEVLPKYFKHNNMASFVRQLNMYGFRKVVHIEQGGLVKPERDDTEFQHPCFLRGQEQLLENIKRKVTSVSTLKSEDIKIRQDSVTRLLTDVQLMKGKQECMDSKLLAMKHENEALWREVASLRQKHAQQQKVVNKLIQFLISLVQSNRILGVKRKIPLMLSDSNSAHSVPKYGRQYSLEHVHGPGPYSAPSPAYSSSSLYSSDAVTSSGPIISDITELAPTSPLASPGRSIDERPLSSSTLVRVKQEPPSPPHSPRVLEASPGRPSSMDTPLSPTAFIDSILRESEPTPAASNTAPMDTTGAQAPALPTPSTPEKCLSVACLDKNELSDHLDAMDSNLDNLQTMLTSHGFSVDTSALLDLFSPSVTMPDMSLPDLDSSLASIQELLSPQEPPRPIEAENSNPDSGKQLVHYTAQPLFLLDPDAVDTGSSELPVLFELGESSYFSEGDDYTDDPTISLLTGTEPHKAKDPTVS
# [4] = cells; format: functional, cell-based
# [5] = cells; format: functional, cell-based; remark: listed apart in the source
# [6] = system: H4; experiment: Luminescence Cell-Based Dose Response HTS to Identify Activators of 5'UTR Stem-Loop Driven Prion Protein mRNA Translation in H4 Neuroglioblastoma Cells. [Related pubchem assays: 1829 (Project Summary), 1814 (Primary HTS)]; format: functional; details: Homo sapiens
# [7] = Luminescence Cell-Based Dose Confirmation HTS to Identify Activators of 5'UTR Stem-Loop Driven Alpha-Synuclein mRNA Translation in H4 Neuroglioblastoma Cells. [Related pubchem assays: 1829 (Project Summary), 1814 (Primary HTS)]; format: functional
# [8] = Luminescence Cell-Based Dose Response HTS to Identify Activators of Luciferase Translation or Activity in H4 […] Cells. [Related pubchem assays: 1829 (Project Summary), 1814 (Primary HTS)]; format: functional
# [9] = biological target: Cytochrome P450 2C9 (Homo sapiens, UniProt P11712)
# [10] = system: INS1; experiment: INS-1E survival protection against cytokine death – cell-based, luminescence, retest, dose response (AID 449756); format: functional; details: Rattus norvegicus;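 also: cell death triggered by IL-1 beta plus TNF-alpha plus IFN-gamma mixture; protective hits raise ATP signal compared with cytokine alone wells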
# [11] = biological target: T2, Protein RecA (Mycobacterium tuberculosis, UniProt P9WHJ3); experiment: Fluorescence Cell-Free Homogeneous Dose Retest to Identify Inhibitors of RecA-Intein Splicing Activity. [Related pubchem assays (depositor defined):AID2097, AID2223, AID489010, AID492950]; format: functional
# T2 sequence (P9WHJ3 whole entry): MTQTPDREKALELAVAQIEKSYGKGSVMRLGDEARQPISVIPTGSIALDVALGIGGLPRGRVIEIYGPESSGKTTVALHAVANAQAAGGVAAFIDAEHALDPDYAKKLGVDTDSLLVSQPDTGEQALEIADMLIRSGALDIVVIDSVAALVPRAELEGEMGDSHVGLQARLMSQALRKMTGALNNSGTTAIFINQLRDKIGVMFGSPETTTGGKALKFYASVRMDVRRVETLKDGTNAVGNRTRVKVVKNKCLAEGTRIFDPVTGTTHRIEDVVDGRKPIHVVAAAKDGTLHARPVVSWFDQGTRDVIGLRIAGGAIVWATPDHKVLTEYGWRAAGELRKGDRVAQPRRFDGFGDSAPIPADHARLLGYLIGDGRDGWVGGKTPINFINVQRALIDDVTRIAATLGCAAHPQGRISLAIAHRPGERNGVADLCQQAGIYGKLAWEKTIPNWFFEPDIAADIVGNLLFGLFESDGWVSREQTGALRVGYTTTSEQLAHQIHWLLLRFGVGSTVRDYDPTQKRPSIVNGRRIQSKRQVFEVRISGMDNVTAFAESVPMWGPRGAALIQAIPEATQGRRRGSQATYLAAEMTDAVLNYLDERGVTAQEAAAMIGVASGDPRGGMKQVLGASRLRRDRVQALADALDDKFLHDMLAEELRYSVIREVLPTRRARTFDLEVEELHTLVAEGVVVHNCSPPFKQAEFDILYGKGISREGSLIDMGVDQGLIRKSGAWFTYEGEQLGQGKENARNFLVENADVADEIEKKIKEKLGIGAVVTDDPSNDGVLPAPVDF
# [12] = biological target: T3, Replicative DNA helicase DnaB (Mycobacterium tuberculosis, UniProt P9WMR3); experiment: DnaB intein splicing inhibitors, dose response, biochemical, cell-free fluorescence (AID 449749); format: functional
# T3 sequence (P9WMR3 whole entry): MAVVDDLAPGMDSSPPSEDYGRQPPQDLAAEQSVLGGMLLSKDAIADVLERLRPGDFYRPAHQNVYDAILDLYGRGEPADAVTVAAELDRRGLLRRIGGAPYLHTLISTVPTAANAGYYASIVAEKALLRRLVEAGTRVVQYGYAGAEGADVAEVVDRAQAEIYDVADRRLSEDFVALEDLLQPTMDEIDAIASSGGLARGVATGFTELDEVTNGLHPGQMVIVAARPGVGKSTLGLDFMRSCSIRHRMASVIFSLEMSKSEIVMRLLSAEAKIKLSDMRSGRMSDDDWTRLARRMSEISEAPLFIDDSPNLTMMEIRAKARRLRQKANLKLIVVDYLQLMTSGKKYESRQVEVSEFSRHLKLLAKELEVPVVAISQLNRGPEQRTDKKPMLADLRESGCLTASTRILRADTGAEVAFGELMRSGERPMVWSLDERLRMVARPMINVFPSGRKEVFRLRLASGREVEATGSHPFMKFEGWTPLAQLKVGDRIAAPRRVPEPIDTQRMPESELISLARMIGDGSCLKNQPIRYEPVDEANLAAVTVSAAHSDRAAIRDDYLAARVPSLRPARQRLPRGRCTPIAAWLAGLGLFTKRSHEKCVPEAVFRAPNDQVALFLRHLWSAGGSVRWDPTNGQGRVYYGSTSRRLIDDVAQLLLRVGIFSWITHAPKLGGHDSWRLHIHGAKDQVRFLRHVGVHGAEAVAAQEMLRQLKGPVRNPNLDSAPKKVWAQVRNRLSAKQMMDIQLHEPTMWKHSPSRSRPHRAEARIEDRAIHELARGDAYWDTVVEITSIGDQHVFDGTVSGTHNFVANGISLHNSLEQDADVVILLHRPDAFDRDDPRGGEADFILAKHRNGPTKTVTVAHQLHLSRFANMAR
# [13] = NIH3T3 cell viability loss – ATP luminescence, mouse fibroblasts, counter-screen, dose response (AID 2010); format: functional, cell-based;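 also: cells exposed to compound for about 90 hours before reading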
# [14] = Trypanosoma cruzi growth suppression in host cells – NIH3T3 host cells, beta-gal luminescence, confirmation (AID 2044); format: functional, cell-based;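 also: intracellular parasites grown in NIH/3T3 mouse fibroblasts as host cells; luminescent beta-galactosidase reporter signal from transgenic T. cruzi replicating inside host cells; inhibitors lower the luminescence signal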
# [15] = Luminescence Cell-Based Dose Retest to Confirm Inhibitors of Cancer Stem Cells. [Related pubchem assays (depositor defined):AID2717, AID2721]; format: functional; details: Homo sapiens
# [16] = system: Streptococcus sp. 'group A'; experiment: Streptococcus pyogenes SK(-)GAS viability under kanamycin – luminescence, BacTiterGlo, confirmation, counter-screen for streptokinase expression inhibitor project, dose response (AID 1900); format: functional, organism-based
# [17] = biological target: T4, Streptokinase A (Streptococcus pyogenes serotype M1, UniProt P10520); experiment: viability-normalized secreted streptokinase activity reduction – plasminogen activation absorbance, OD405, dose response (AID 1914); format: functional, Streptococcus pyogenes M1 GAS;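 also: secreted streptokinase activity via plasminogen activation per viability signal from cell pellet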
# T4 sequence (P10520 whole entry): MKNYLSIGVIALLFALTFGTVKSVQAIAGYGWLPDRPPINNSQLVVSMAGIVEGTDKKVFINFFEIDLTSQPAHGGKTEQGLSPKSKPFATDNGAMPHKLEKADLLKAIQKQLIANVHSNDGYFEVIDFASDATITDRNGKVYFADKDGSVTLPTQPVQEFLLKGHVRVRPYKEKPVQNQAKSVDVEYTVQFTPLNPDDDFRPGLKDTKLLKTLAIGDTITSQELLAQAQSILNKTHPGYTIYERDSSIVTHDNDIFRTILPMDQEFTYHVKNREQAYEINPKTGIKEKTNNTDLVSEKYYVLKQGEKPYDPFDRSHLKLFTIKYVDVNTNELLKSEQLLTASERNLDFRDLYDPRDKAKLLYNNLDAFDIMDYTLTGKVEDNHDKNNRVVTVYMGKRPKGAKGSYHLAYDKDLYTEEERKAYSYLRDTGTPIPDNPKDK
# [18] = system: Streptococcus; experiment: GAS UMAA2166 growth inhibition – luminescence, BacTiterGlo, counter-screen for streptokinase expression inhibitor project, dose response (AID 1915); format: functional, organism-based;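 also: potency for reduction of bacterial viability or growth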
# Cytochrome P450 3A4, sequence (P08684 whole entry): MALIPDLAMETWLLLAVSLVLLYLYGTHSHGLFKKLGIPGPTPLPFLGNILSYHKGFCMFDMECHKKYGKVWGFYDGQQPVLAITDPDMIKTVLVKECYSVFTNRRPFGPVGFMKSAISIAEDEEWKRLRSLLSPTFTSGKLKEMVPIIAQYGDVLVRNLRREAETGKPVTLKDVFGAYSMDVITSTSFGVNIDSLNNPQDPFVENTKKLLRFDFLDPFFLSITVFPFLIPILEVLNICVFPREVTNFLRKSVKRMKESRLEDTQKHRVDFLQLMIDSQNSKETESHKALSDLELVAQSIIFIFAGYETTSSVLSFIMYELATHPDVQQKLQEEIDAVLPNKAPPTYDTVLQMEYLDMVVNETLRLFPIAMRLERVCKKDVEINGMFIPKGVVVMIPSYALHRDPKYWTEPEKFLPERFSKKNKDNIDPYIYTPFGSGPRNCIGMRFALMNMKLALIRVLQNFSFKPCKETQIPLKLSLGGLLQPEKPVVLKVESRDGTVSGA
# Cytochrome P450 2C19, sequence (P33261 whole entry): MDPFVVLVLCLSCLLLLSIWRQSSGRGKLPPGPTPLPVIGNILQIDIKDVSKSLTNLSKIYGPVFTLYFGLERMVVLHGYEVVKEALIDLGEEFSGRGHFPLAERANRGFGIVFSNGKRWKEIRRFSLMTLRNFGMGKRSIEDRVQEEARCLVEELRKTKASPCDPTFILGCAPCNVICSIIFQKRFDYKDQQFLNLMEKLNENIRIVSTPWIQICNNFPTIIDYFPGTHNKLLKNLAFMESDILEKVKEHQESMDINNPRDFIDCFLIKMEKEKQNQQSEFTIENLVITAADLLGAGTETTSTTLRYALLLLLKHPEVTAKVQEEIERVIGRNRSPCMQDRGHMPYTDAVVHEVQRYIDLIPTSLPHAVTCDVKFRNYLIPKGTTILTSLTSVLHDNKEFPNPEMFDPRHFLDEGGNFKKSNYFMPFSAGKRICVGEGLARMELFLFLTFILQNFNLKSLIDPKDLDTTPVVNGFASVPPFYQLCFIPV
# Cytochrome P450 2C9, sequence (P11712 whole entry): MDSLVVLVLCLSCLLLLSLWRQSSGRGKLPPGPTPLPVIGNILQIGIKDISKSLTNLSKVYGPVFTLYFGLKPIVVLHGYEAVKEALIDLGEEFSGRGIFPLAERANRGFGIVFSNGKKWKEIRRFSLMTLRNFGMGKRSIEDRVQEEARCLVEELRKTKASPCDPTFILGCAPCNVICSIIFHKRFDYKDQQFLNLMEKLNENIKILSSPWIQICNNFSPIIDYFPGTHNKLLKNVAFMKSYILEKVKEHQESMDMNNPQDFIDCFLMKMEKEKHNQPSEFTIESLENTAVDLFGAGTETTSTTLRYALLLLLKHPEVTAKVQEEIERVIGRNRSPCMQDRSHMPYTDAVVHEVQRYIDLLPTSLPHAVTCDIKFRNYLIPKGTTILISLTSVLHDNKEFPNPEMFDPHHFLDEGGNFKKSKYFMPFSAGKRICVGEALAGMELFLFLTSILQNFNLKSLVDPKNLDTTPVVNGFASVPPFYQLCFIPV
compound,measurement,setting,value
Cc1nc2ncnn2c(C)c1CCC(=O)NCc1ccco1,AC50,[1],10 µM (inconclusive)
same,AC50,[2],inconclusive
same,EC50,[3],> 260 µM (inactive)
O=C(CCCC1=NS(=O)(=O)c2ccccc2N1)N1CCN(c2ccccc2)CC1,EC50,[3],> 260 µM (inactive)
CCOc1ccc(C(=O)Nc2ccc3c(c2)OCCO3)cc1,EC50,[3],> 260 µM (inconclusive)
O=[N+]([O-])c1ccc(OCCCCN2CCCCC2)cc1,EC50,[4],> 350 µM (not active)
same,EC50,[5],> 350 µM (not active)
CC(C)(C)NC(=O)NC(=O)CN1CC=C(c2ccccc2)CC1,EC50,[3],> 260 µM (inactive)
Cc1ccc(NC(=O)c2cc(=O)c3ccccc3o2)cc1,EC50,[6],21.6 µM (active)
same,EC50,[7],1.12 µM (active)
same,EC50,[8],17.9 µM (active)
O=C(CSc1ncccn1)Nc1ccc(S(=O)(=O)N2CCCCC2)cc1,AC50,[1],25.1 µM (inconclusive)
same,AC50,[2]; read-out: AC50,25.1 µM (inconclusive)
Cc1ccc(NC(=O)C2CC(=O)n3c(nc4ccccc43)N2)cc1 (centres undefined),AC50,[9],0.0355 µM (inconclusive)
same,AC50,[1],17.8 µM (inconclusive)
same,AC50,[2]; read-out: AC50,6.31 µM (inconclusive)
Cc1nnc(Sc2nc3c(c(=O)n(C)c(=O)n3C)n2Cc2ccccc2Cl)s1,EC50,[3],> 260 µM (inactive)
CCc1cc(=O)oc2c(CNCc3ccccc3F)c(O)c(Cl)cc12,EC50,[3],> 260 µM (inactive)
CN(Cc1cccc(C(F)(F)F)c1)C(=O)C1CCC(=O)N(CC2CCCCC2)C1 (centres undefined),EC50,[4],> 350 µM (not active)
same,EC50,[5],> 350 µM (not active)
CCC(=O)c1ccc(N2CCN(C(=O)c3ccc(Br)cc3)CC2)c(F)c1,EC50,[4],> 350 µM (not active)
same,EC50,[5],> 350 µM (not active)
CCCCOC(=O)c1ccc(NC(=S)NC(=O)c2c(Br)c(C)nn2C)cc1,EC50,[4],> 350 µM (not active)
same,EC50,[5],44.9 µM (active)
CCOC(=O)c1ccc(S(=O)(=O)NNC(=O)COc2ccccc2C)cc1,EC50,[4],> 350 µM (not active)
same,EC50,[5],> 350 µM (not active)
CNc1nc(N)c([N+](=O)[O-])c(Nc2cccc(F)c2)n1,AC50,[10],> 260 µM (inactive)
Cc1cc2nc(CCN(C(S)=NCC3CCCO3)C3CCCC3)[nH]c2cc1C (centres undefined),EC50,[3],> 260 µM (inactive)
CC(=O)c1ccc(N(C(=O)c2csnn2)C(C(=O)NC(C)(C)C)c2cccs2)cc1 (centres undefined),EC50,[4],> 350 µM (not active)
same,EC50,[5],> 350 µM (not active)
Cc1ccc(C)c(S(=O)(=O)Nc2ccc(O)c3ccccc23)c1,EC50,[11],0.0745 µM (active)
same,AC50,[10],7.62 µM (active)
same,AC50,[12],0.384 µM (active)
O=C(Cn1c(-c2ccccc2)c[n+]2ccsc12)c1ccc([N+](=O)[O-])cc1,AC50,[10],11.6 µM (active)
same,EC50,[13],> 60 µM (not active)
same,EC50,[14],0.549 µM (active)
CCOC(=O)C1(Cc2ccc(OC)cc2)CCN(C(=O)c2cc3ccccc3[nH]2)CC1,EC50,[3],30.3 µM (active)
[O-][n+]1c2ccccc2c2n1CCCN=C2c1ccc(Cl)cc1,EC50,[6],41.8 µM (active)
same,EC50,[7],7.98 µM (active)
same,EC50,[8],8.34 µM (active)
CCN=C(S)N1CCN(S(=O)(=O)c2cccc(C(F)(F)F)c2)CC1,EC50,[3],> 260 µM (inactive)
COC(=O)Nc1nnc(Cc2ccc(OC)cc2)s1,EC50,[4],> 350 µM (not active)
same,EC50,[5],> 350 µM (not active)
CCC(C)Sc1cccc(-c2nc3ccc(C)cn3c2NCc2ccccc2)c1 (centres undefined),AC50,[15],2.75 µM (active)
same,AC50,[10],7.39 µM (active)
same,EC50,[16],3.25 µM (active)
same,EC50,[17],4.26 µM (active)
same,EC50,[18],10.3 µM (active)
CCNS(=O)(=O)c1ccc(NC(=O)c2cncc(Br)c2)cc1,EC50,[4],> 350 µM (not active)
same,EC50,[5],> 350 µM (not active)
CCOc1ccccc1CN1CCNC(=O)C1CC(=O)NCc1nccn1CC (centres undefined),EC50,[3],> 260 µM (inactive)
CCn1c(SCC(=O)N/N=C/C=C/c2ccco2)nc2ccccc21,EC50,[3],> 260 µM (inactive)
Cc1ccc(/C=N/NC(=O)Cc2ccc(Cl)cc2)c(O)c1,AC50,[10],3.76 µM (active)
same,EC50,[16],1.1 µM (active)
same,EC50,[18],3.08 µM (active)
C/C(=N\NC(=O)C(=O)Nc1cccc(Cl)c1)c1ccncc1,AC50,[10],4.88 µM (active)
Cc1cc(SCC(=O)N/N=C/c2ccccc2C(=O)O)c(C)cc1Br,EC50,[4],> 350 µM (not active)
same,EC50,[5],> 350 µM (not active)
COc1ccc(/C=N/NC(=O)c2cccnc2)c(C(=O)O)c1OC,EC50,[3],> 260 µM (inactive)

# Source: ChEMBL document CHEMBL1201862, “PubChem BioAssay data set” (2004)
